Reference: the Deep4Chem optical property database
Where “and” joins values, the source holds several entries; their conditions need not be identical. Identical values can stand only once. Each block holds one molecule with its values, some of them ahead of it.

Test: solvent given as SMILES

Compound: O=c1cccc2n1C[C@@H]1CNC[C@H]2C1
fluorescence lifetime (in CC#N): 0.289 ns

Compound: c1ccc2c(c1)c1ccccc1n2-c1ccc2cc(-c3ccc(-c4ccc(-c5cc6ccc(-n7c8ccccc8c8ccccc87)cc6o5)cc4)cc3)oc2c1
fluorescence lifetime (in Cc1ccccc1): 0.97 ns
fluorescence lifetime (in c1ccc2c(c1)c1ccccc1n2-c1ccc(-c2ccc(-n3c4ccccc4c4ccccc43)cc2)cc1): 1.5 ns

Compound: CC(C)(C)NC1=C2C=CC=[N+]2[B-](F)(F)n2cccc21
fluorescence lifetime (in C1CCCCC1): 6.17 ns
fluorescence lifetime (in CC(C)=O): 0.0272 ns
fluorescence lifetime (in CCO): 0.0307 ns
fluorescence lifetime (in CCOC(C)=O): 0.188 ns
fluorescence lifetime (in CO): 0.019 ns
fluorescence lifetime (in OCC(F)(F)F): 0.125 ns

Compound: Nc1nc2c([nH]c(=O)n2[C@H]2C[C@H](O)[C@@H](CO)O2)c(=O)[nH]1
fluorescence lifetime (in O): 0.0008 ns

Compound: CCOC(=O)c1ccc(NC(=O)COc2cc3c4c([nH]c3c(C)c2C)C(=O)CCC4)cc1
fluorescence lifetime (in C1COCCO1): 1.23 ns
fluorescence lifetime (in CC#N): 1.04 ns
fluorescence lifetime (in CCO): 1.26 ns
fluorescence lifetime (in CS(C)=O): 2.12 ns
fluorescence lifetime (in Cc1ccccc1): 1.1 ns

Compound: O=C(O)c1c2ccccc2c(C(=O)O)c2ccccc12
fluorescence lifetime (in C1CCOC1): 8.8 ns
fluorescence lifetime (in CN(C)C=O): 5.7 ns

Compound: N#CC(C#N)=C(c1ccc(-n2ccc3ccccc32)cc1)c1ccc(-n2ccc3ccccc32)cc1
fluorescence lifetime (in Cc1ccccc1): 5.2 ns

Compound: F[B-]1(F)OC(c2ccc(N3CCCCC3)cc2)=Cc2cccc[n+]21
fluorescence lifetime (in ClC(Cl)Cl): 2.68 ns

Compound: CN(C)c1ccc(/C=C/c2nc3c4ccccc4c4ccccc4c3[nH]2)cc1
fluorescence lifetime (in C1CCOC1): 0.341 ns
fluorescence lifetime (in C1COCCO1): 0.484 ns
fluorescence lifetime (in CC1CCCCC1): 0.471 ns
fluorescence lifetime (in CC#N): 0.356 ns
fluorescence lifetime (in CCOC(C)=O): 0.325 ns
fluorescence lifetime (in CCOCC): 0.391 ns
fluorescence lifetime (in CN(C)C=O): 0.37 ns
fluorescence lifetime (in COC(C)=O): 0.308 ns
fluorescence lifetime (in CS(C)=O): 0.384 ns
fluorescence lifetime (in Cc1ccccc1): 0.306 ns
fluorescence lifetime (in ClC(Cl)Cl): 0.138 ns

Compound: CC1=CC(C)=[N+]2C1=C(c1ccc(I)cc1)c1c(C)cc(C)n1[B-]21OCCO1
fluorescence lifetime (in ClC(Cl)Cl): 0.93 ns

Compound: [O-][n+]1c(/C=C/c2ccccc2)nc(N2CCOCC2)c2c1CCCC2
fluorescence lifetime (in ClCCl): 9.2 ns

Compound: O=[N+]([O-])c1ccc(C#Cc2ccc3ccccc3c2)cc1
fluorescence lifetime (in ClC(Cl)Cl): 0.25 ns
fluorescence lifetime (in ClCCl): 0.35 ns

Compound: COc1ccc(-c2nc3ccccc3nc2/C=C/N2CCCC2)s1
fluorescence lifetime (in C1CCCCC1): 0.79 ns
fluorescence lifetime (in C1CCOC1): 2.79 ns
fluorescence lifetime (in CC#N): 5.78 ns
fluorescence lifetime (in CC(C)=O): 5.1 ns
fluorescence lifetime (in CCO): 0.67 ns
fluorescence lifetime (in CO): 0.22 ns
fluorescence lifetime (in CS(C)=O): 4.88 ns
fluorescence lifetime (in Cc1ccccc1): 1.25 ns
fluorescence lifetime (in ClCCl): 3.28 ns

Compound: CC1=C(c2ccccc2)C(C)=[N+]2C1=C(c1ccccc1)c1c(C)c(-c3ccccc3)c(C)n1[B-]2(F)F
fluorescence lifetime (in Cc1ccccc1): 4.1 ns

Compound: c1ccc(-c2nnc(-c3ccc(N4c5ccccc5Oc5ccccc54)cc3)o2)cc1
fluorescence lifetime (in Cc1ccccc1): 11 ns
fluorescence lifetime (in c1ccc(-n2c(-c3c(-n4c5ccccc5c5ccccc54)cccc3-n3c4ccccc4c4ccccc43)nc3ccccc32)cc1): 4.9 ns

Compound: Cc1nc(-c2cc(C(F)(F)F)ccc2O)n2c1CCCC2
fluorescence lifetime (in ClCCl): 3.7 ns

Compound: CCCCC1=Cc2c3ccc4cccc5ccc(c6cc(-c7ccccc7)n(c26)P1(=O)c1ccccc1)c3c45 (stereo not given)
fluorescence lifetime (in C1CCCCC1): 1.9 ns
fluorescence lifetime (in C1CCOC1): 1.7 ns
fluorescence lifetime (in C1COCCO1): 1.8 ns
fluorescence lifetime (in CC#N): 1.8 ns
fluorescence lifetime (in CC(C)=O): 1.8 ns
fluorescence lifetime (in CO): 1.7 ns
fluorescence lifetime (in Cc1ccccc1): 1.7 ns
fluorescence lifetime (in ClC(Cl)Cl): 1.6 ns
fluorescence lifetime (in ClCCl): 1.6 ns

Compound: N#C/C(=C\c1ccc(C(F)(F)F)cc1)c1nc(-c2ccc(Cl)cc2)cs1
fluorescence lifetime (in CC#N): 1.2 ns

Compound: CC1(C)c2ccccc2N(c2ccc(-c3nc([C@]45CC6CC(C[C@@H](C6)C4)C5)nc([C@]45C[C@H]6C[C@@H](C[C@H](C6)C4)C5)n3)cc2)c2ccccc21
fluorescence lifetime (in CC(C)(C)c1ccc(-n2c3ccc([Si](c4ccccc4)(c4ccccc4)c4ccccc4)cc3c3cc([Si](c4ccccc4)(c4ccccc4)c4ccccc4)ccc32)cc1): 14.4 ns

Compound: C1=Cc2ccccc2Cc2ccccc21
fluorescence lifetime (in CC#N): 3.72 ns

Compound: Cc1cc(-c2ccccc2C)cc(C)[o+]1
fluorescence lifetime (in CC#N): 12.2 ns
fluorescence lifetime (in ClCCl): 4.6 ns

Compound: c1ccc(-c2nn(-c3ccccc3)c3nc4ccccc4cc23)cc1
fluorescence lifetime (in C1CCCCC1): 17.9 ns
fluorescence lifetime (in C1CCOC1): 21.2 ns
fluorescence lifetime (in CC#N): 25.1 ns
fluorescence lifetime (in CC(C)=O): 23.4 ns
fluorescence lifetime (in CCCCCl): 19.7 ns
fluorescence lifetime (in CCCCOCCCC): 18.6 ns
fluorescence lifetime (in CN(C)C=O): 22 ns

Compound: COCCOCCOCCOCC(COCCOCCOCCOC)Oc1cc(/C=C/c2ccc(/C=C(\C#N)c3ccncc3)cc2)c(OC(COCCOCCOCCOC)COCCOCCOCCOC)cc1/C=C/c1ccc(/C=C(\C#N)c2ccncc2)cc1
fluorescence lifetime (in ClCCl): 1.7 ns

Compound: Cc1ccc(-c2ccc(/C=C/c3ccc(C#N)cc3)cn2)nc1
fluorescence lifetime (in CC#N): 0.6 ns

Compound: COc1ccc2c(c1)C(=O)c1cc(OC)cc(OC)c1-2
fluorescence lifetime (in C1CCCCC1): 1.3 ns
fluorescence lifetime (in CC#N): 0.6 ns

Compound: COc1cc(OC)c2c(c1)C(=O)c1cc(OC)cc(OC)c1-2
fluorescence lifetime (in C1CCCCC1): 0.8 ns

More lines, now with the values ahead:

fluorescence lifetime (in ClC(Cl)Cl): 0.564 ns
Compound: CCCCCCN1C(=O)c2cccc3c(-c4ccc(-c5cccs5)s4)ccc(c23)C1=O

fluorescence lifetime (in ClCCl): 16.9 ns
Compound: CCN(CC)c1ccc2c(c1)oc(=O)c1cc3cnn(-c4ccccc4)c3nc12

fluorescence lifetime (in ClC(Cl)Cl): 0.58 ns
Compound: CCCCCCn1c2cc(/C=C(\C#N)c3ccccc3)ccc2c2ccc(/C=C(\C#N)c3ccccc3)cc21

fluorescence lifetime (in ClCCl): 11.3 ns
Compound: O=P1(c2ccccc2)c2ccccc2-c2sc3ccccc3c21 (stereo not given)

fluorescence lifetime (in CCO): 2.25 ns
Compound: CC(C)(C)c1cc(C(C)(C)C)c(-c2nnc(-c3ccc(-n4c5ccccc5c5ccccc54)cc3)o2)c(C(C)(C)C)c1

fluorescence lifetime (in ClC(Cl)Cl): 1.83 ns
Compound: N#Cc1ccc(C#Cc2ccc(C#Cc3ccccc3C#N)cc2C#N)cc1

fluorescence lifetime (in ClC(Cl)Cl): 1.11 ns
Compound: Fc1cccc(C2=Cc3ccc4ccccc4[n+]3[B-](F)(F)O2)c1

fluorescence lifetime (in CN(C)C=O): 3 ns
Compound: CCCCCCCCCCCCCCCCCCN1C(=O)c2ccc3c4ccc5c6c(ccc(c7ccc(c2c37)C1=O)c64)C(=O)NC5=O

fluorescence lifetime (in C1CCOC1): 0.0036 ns
Compound: [O-]c1ccccc1/C=N/c1ccccc1/N=C/c1ccccc1[O-]

fluorescence lifetime (in C1CCCCC1): 5.3 ns
fluorescence lifetime (in CC#N): 5.5 ns
fluorescence lifetime (in CCOC(C)=O): 5.1 ns
fluorescence lifetime (in CO): 5 ns
fluorescence lifetime (in CS(C)=O): 5.6 ns
fluorescence lifetime (in ClCCl): 6.8 ns
Compound: Nc1ccc2c3cccc4cccc(c5cccc1c52)c43

fluorescence lifetime (in ClCCl): 2.67 ns
Compound: O=[N+]([O-])c1cccc2c1ccc1[n+]2[B-](F)(F)n2c-1cc1c3ccccc3c3ccccc3c12

fluorescence lifetime (in C1CCOC1): 1.01 ns
fluorescence lifetime (in ClCCl): 0.95 ns
Compound: CCC(CC)COC1=CC2=C3c4cc(OCC(CC)CC)c(-c5ccccc5)n4[B-](F)(F)[n+]4nnn(c43)[B-](F)(F)[N+]2=C1c1ccccc1

fluorescence lifetime (in CCOC(C)=O): 3.6 ns
fluorescence lifetime (in CS(C)=O): 4.3 ns
Compound: c1ccc(Nc2nc(Nc3ccccc3)nc(Nc3ccc4c5cccc6cccc(c7cccc3c74)c65)n2)cc1

fluorescence lifetime (in C1CCOC1): 1.7 ns
Compound: CCC1(CC)c2ccccc2-c2c1c1c(c3c2C(CC)(CC)c2cc(-c4cccs4)ccc2-3)C(CC)(CC)c2cc(N(c3ccccc3)c3ccccc3)ccc2-1

fluorescence lifetime (in ClC(Cl)Cl): 0.63 ns
Compound: CCc1ccc(-n2c3ccccc3c3cc4c(cc32)c2ccccc2n4-c2ccc(CC)s2)s1

fluorescence lifetime (in CCCCCC): 3.1 ns
Compound: CC(C)(C)c1cc2ccc3cc(C(C)(C)C)cc4c(N(c5ccccc5)c5ccccc5)cc(c1)c2c34

fluorescence lifetime (in ClCCl): 6.9 ns
Compound: CC1=CC(C)=[N+]2C1=C(c1c(-c3ccccn3)nc3ccccn13)c1c(C)cc(C)n1[B-]2(F)F

fluorescence lifetime (in CC#N): 5.59 ns
fluorescence lifetime (in ClCCl): 5.33 ns
Compound: CCOC(=O)c1ccc2nc(/N=N/c3ccc(N(CC)CC)cc3)sc2c1

fluorescence lifetime (in C1CCCCC1): 20.5 ns
Compound: CCCCc1cc2cccc3cc(CCCC)c4cc(-c5cc6[b-]7c(c5)c(CCCC)cc5cccc(cc6CCCC)[n+]75)cc1[b-]4[n+]23

fluorescence lifetime (in CC#N): 2.1 ns
Compound: COc1cc(C#Cc2ccccc2)c(C#Cc2ccccc2)cc1OC

fluorescence lifetime (in CCO): 2.5 ns
fluorescence lifetime (in ClCCl): 5.6 ns
Compound: N#Cc1cnc(-c2c3ccccc3c(-c3ncc(C#N)cn3)c3ccccc23)nc1

fluorescence lifetime (in CC#N): 3.81 ns
fluorescence lifetime (in CS(C)=O): 4.7 ns
Compound: [O-]c1c(-c2nc3ccccc3s2)cc2ccc3cccc4ccc1c2c34

fluorescence lifetime (in c1cc(-n2c3ccccc3c3ccccc32)cc(-n2c3ccccc3c3ccccc32)c1): 7.2 ns
Compound: CC(C)(C)c1ccc2c(c1)c1cc(C(C)(C)C)ccc1n2-c1ccc(-n2c3ccc(C(C)(C)C)cc3c3cc(C(C)(C)C)ccc32)c(-c2nccnc2C#N)c1

fluorescence lifetime (in ClCCl): 0.99 ns
Compound: Cn1c(=O)cc(C(=O)c2ccccc2)c2sc(-c3ccc(N(c4ccccc4)c4ccccc4)cc3)cc21

fluorescence lifetime (in CC#N): 3.4 ns
Compound: N#C/C(=C\c1ccc(C#N)cc1)c1nc(-c2ccccc2)cs1

fluorescence lifetime (in ClCCl): 0.41 ns
Compound: F[B-]1(F)Oc2ccc(Br)cc2-c2c3c(c4c([n+]21)CCc1ccccc1-4)CCc1ccccc1-3

fluorescence lifetime (in ClC(Cl)Cl): 2.5 ns
Compound: N#CC(C#N)=Cc1ccc(-c2ccc(N(c3ccccc3)c3ccccc3)cc2)s1

fluorescence lifetime (in ClCCl): 1.86 ns
Compound: COC(=O)c1cc(=O)n(Cc2ccccc2)c2cc(-c3ccc(N(C)C)cc3)sc12

fluorescence lifetime (in CC#N): 5.21 ns
fluorescence lifetime (in CCOC(C)=O): 3.84 ns
fluorescence lifetime (in CN(C)C=O): 6.02 ns
fluorescence lifetime (in CS(C)=O): 6.76 ns
fluorescence lifetime (in c1ccccc1): 1.63 ns
Compound: CCOC(=O)CN(CC(=O)OCC)c1ccc(-c2cc(-c3ccccn3)nc(-c3ccccn3)c2)cc1

fluorescence lifetime (in CCCCCC): 5.41 ns
fluorescence lifetime (in CCCCCCCCO): 5.13 ns
fluorescence lifetime (in CCOC(C)=O): 5.3 ns
fluorescence lifetime (in CN(C)C=O): 4.82 ns
Compound: CC1=CC(C)=[N+]2C1=Cc1c3ccccc3c(C#Cc3ccccc3)n1[B-]2(F)F

fluorescence lifetime (in CC#N): 1.74 ns
fluorescence lifetime (in CC(C)O): 3.26 ns
fluorescence lifetime (in CCCCCCCCO): 3.42 ns
fluorescence lifetime (in CCCCCCO): 3.41 ns
fluorescence lifetime (in CCCCO): 3.37 ns
fluorescence lifetime (in CCCO): 3.27 ns
fluorescence lifetime (in CCO): 2.96 ns
fluorescence lifetime (in CN(C)C=O): 2.33 ns
fluorescence lifetime (in CO): 2.5 ns and 2.46 ns
fluorescence lifetime (in O): 1.74 ns and 1.75 ns
fluorescence lifetime (in [2H]O[2H]): 1.84 ns
Compound: CCN(CC)c1ccc2c(-c3ccccc3C(=O)[O-])c3ccc(=[N+](CC)CC)cc-3oc2c1

fluorescence lifetime (in ClCCl): 1.94 ns
Compound: COc1ccc(-c2cc3c(s2)c(C(C)=O)cc(=O)n3Cc2ccccc2)cc1

fluorescence lifetime (in ClCCl): 2.06 ns
Compound: COC(=O)c1cc(=O)n(Cc2ccccc2)c2cc(-c3ccc(OC)cc3)sc12

fluorescence lifetime (in ClCCl): 11.1 ns
Compound: O=c1c2cccc3cccc(c32)c2nc3ccccc3n12

fluorescence lifetime (in C1CCOC1): 3.05 ns
Compound: COc1cc2c(cc1-c1ccc(Cl)cc1)Cc1c3c(c4c(c1-2)-c1cc(OC)c(-c2ccc(Cl)cc2)cc1C4)C(=O)N(CCC(C)C)C3=O
